Data as given in patent US20250380697A1, “ISOXAZOLINE DERIVATIVE COMPOUND AND INSECTICIDAL COMPOSITION COMPRISING SAME” (KYUNG NONG CORPORATION, priority 2022, published 2025).

Columns and labels:
Type in all cases: in vivo
[1] = test system: Frankliniella occidentalis; assay: Pesticidal activity against Frankliniella occidentalis, spray method; settings: 48 h, read-out: mortality rate against Frankliniella occidentalis
From the text: A water-soaked filter paper (9.0 cm in diameter) was placed in an insect breeding dish (Lab Guide®) with a diameter of 9.0 cm and a height of 4.0 cm, and then parafilm (width 4.0 cm×height 4.0 cm) was placed thereon. Before treating with a pesticide composition, 10 adult Frankliniella occidentalis were inoculated per petri dish using a No. 4 brush. In this case, Frankliniella occidentalis adults used were those purchased from the Bio Utilization Institute (Andong, Korea). Then, each of the pesticide compositions prepared in Examples (a diluted solution in which each of the compounds of Synthesis Examples (concentration: 100 ppm) was diluted; the solvent=distilled water+acetone 50,000 mg/L+Triton X-100 100 mg/L) was loaded into a 100 mL small sprayer, and sprayed 10-12 times at a distance of 30 cm and a height of 50 cm, and one cotyledons of soybean, which is a host plant, were added one at a time. Then, the Frankliniella occidentalis adults were stored under the conditions of 16 hours of light and 8 hours of darkness, 25±1° C., and relative humidity of 50-60%, and the number of live Frankliniella occidentalis adults was counted 48 hours after the inoculation. Thereafter, the larvae mortality rate was calculated in the same manner as in Test Example 1 above.

Plutella xylostella = assay: Pesticidal activity against Plutella xylostella, leaf-dipping method; settings: 48 h, read-out: larvae mortality rate against Plutella xylostella
Description: Cabbage (Daiya) leaves were cut into pieces with a diameter of 5.8 cm, dipped in each of the pesticide compositions prepared in Examples (a 5% acetone solution in which each of the compounds of Synthesis Examples (concentration: 100 ppm) was diluted) for 30 seconds, and sufficiently shade-dried. Then, the shade-dried cabbage leaves were placed in a petri dish (8.8 cm in diameter) covered with a filter paper and repeatedly inoculated 3 times with third instar larvae of Plutella xylostella, 10 larvae per inoculation. In particular, Plutella xylostella larvae used were those which were collected in a place near Gyeongju (Korea) in 2000 and bred in a breeding room for multiple generations. Then, the Plutella xylostella larvae were stored under the conditions of 16 hours of light and 8 hours of dark, 25±1° C., and relative humidity of 50-60%, and the number of live Plutella xylostella larvae was counted 48 hours after the inoculation. Thereafter, the larvae mortality rate was calculated by correcting the density after treatment based on the density before treatment, as shown in Equation 1 and Equation 2 below, and converting the same into the corrected mortality rate for untreated (Reference: A method of computing the effectiveness of an insecticide. J. Econ. Entomol. 18:265˜267. Abbott, 1925).

Spodoptera litura = assay: Pesticidal activity against Spodoptera litura, leaf-dipping method; settings: 48 h, read-out: mortality rate against Spodoptera litura
Description: Cabbage (Daiya) leaves were cut into pieces with a diameter of 5.8 cm, dipped in each of the pesticide compositions prepared in Examples (a 5% acetone solution in which each of the compounds of Synthesis Examples (concentration: 100 ppm) was diluted) for 30 seconds, and sufficiently shade-dried. Then, the shade-dried cabbage leaves were placed in a petri dish (8.8 cm in diameter) covered with a filter paper and repeatedly inoculated 3 times with the second instar larvae of Spodoptera litura, 10 larvae per inoculation. In this case, Spodoptera litura larvae used were those which were purchased from the Bio Utilization Institute (Andong, Korea). Then, the Spodoptera litura larvae were stored under the conditions of 16 hours of light and 8 hours of dark, 25±1° C., and relative humidity of 50-60%, and the number of live Spodoptera litura larvae was counted 48 hours after the inoculation. Thereafter, the larvae mortality rate was calculated in the same manner as in Test Example 1 above.

Measured: mortality at 100 ppm

Cc1cc(C2=NOC(c3cc(Cl)cc(Cl)c3)(C(F)(F)F)C2)ccc1C(=O)NC(=O)C1CCCCC1 (stereo not drawn) [Synthesis Example 39]
≥ 80%: [1] | Plutella xylostella | Spodoptera litura

Cc1cc(C2=NOC(c3cc(Cl)cc(C(F)(F)F)c3)(C(F)(F)F)C2)ccc1C(=O)NC(=O)C1CCCCC1 (stereo not drawn) [Synthesis Example 40]
≥ 80%: [1] | Plutella xylostella | Spodoptera litura

Cc1cc(C2=NOC(c3cc(Cl)cc(Cl)c3)(C(F)(F)F)C2)ccc1C(=O)NC(=O)c1cn(C)nc1C(F)F (stereo not drawn) [Synthesis Example 45]
≥ 80%: [1] | Plutella xylostella | Spodoptera litura

Cn1cc(C(=O)NC(=O)c2ccc(C3=NOC(c4cc(Cl)cc(Cl)c4)(C(F)(F)F)C3)c3ccccc23)c(C(F)F)n1 (stereo not drawn) [Synthesis Example 46]
≥ 80%: [1] | Plutella xylostella | Spodoptera litura

Cc1cc(C2=NOC(c3cc(Cl)cc(Cl)c3)(C(F)(F)F)C2)ccc1C(=O)NC(=O)c1cn(C)nc1C(F)(F)F (stereo not drawn) [Synthesis Example 47]
≥ 80%: [1] | Plutella xylostella | Spodoptera litura

Cc1cc(C2=NOC(c3cc(Cl)cc(Cl)c3)(C(F)(F)F)C2)ccc1C(=O)NC(=O)C1(F)CC1 (stereo not drawn) [Synthesis Example 49]
≥ 80%: [1] | Plutella xylostella | Spodoptera litura

Cc1cc(C2=NOC(c3cc(Cl)cc(Cl)c3)(C(F)(F)F)C2)ccc1C(=O)NC(=O)C1CC1(F)F (stereo not drawn) [Synthesis Example 50]
≥ 80%: [1] | Plutella xylostella | Spodoptera litura

Cc1cc(C2=NOC(c3cc(Cl)cc(Cl)c3)(C(F)(F)F)C2)ccc1C(=O)NC(=O)C1CC12CCC2 (stereo not drawn) [Synthesis Example 52]
≥ 80%: [1] | Plutella xylostella | Spodoptera litura

Cc1cc(C2=NOC(c3cc(Cl)cc(Cl)c3)(C(F)(F)F)C2)ccc1C(=O)NC(=O)C1CC1C1CC1 (stereo not drawn) [Synthesis Example 53]
≥ 80%: [1] | Plutella xylostella | Spodoptera litura

Cc1cc(C2=NOC(c3cc(Cl)cc(Cl)c3)(C(F)(F)F)C2)ccc1C(=O)NC(=O)CC1CC1 (stereo not drawn) [Synthesis Example 55]
≥ 80%: [1] | Plutella xylostella | Spodoptera litura

Cc1cc(C(=O)NC(=O)c2ccc(C3=NOC(c4cc(Cl)cc(Cl)c4)(C(F)(F)F)C3)cc2C)c(C)o1 (stereo not drawn) [Synthesis Example 56]
≥ 80%: [1] | Plutella xylostella | Spodoptera litura

Cc1cc(C(=O)NC(=O)c2ccc(C3=NOC(c4cc(Cl)cc(C(F)(F)F)c4)(C(F)(F)F)C3)cc2C)c(C)o1 (stereo not drawn) [Synthesis Example 57]
≥ 80%: [1] | Plutella xylostella | Spodoptera litura

Cc1cc(C2=NOC(c3cc(Cl)cc(Cl)c3)(C(F)(F)F)C2)ccc1C(=O)NC(=O)c1ccco1 (stereo not drawn) [Synthesis Example 58]
≥ 80%: [1] | Plutella xylostella | Spodoptera litura

Cc1cc(C2=NOC(c3cc(Cl)cc(C(F)(F)F)c3)(C(F)(F)F)C2)ccc1C(=O)NC(=O)c1ccco1 (stereo not drawn) [Synthesis Example 59]
≥ 80%: [1] | Plutella xylostella | Spodoptera litura

Cc1cc(C2=NOC(c3cc(Cl)cc(C(F)(F)F)c3)(C(F)(F)F)C2)ccc1C(=O)NC(=O)C1CCOCC1 (stereo not drawn) [Synthesis Example 65]
≥ 80%: [1] | Plutella xylostella | Spodoptera litura

Cc1cc(C2=NOC(c3cc(Cl)cc(Cl)c3)(C(F)(F)F)C2)ccc1C(=O)NC(=O)N1CCCCC1 (stereo not drawn) [Synthesis Example 66]
≥ 80%: [1] | Plutella xylostella | Spodoptera litura

Cc1cc(C2=NOC(c3cc(Cl)cc(C(F)(F)F)c3)(C(F)(F)F)C2)ccc1C(=O)NC(=O)N1CCCCC1 (stereo not drawn) [Synthesis Example 67]
≥ 80%: [1] | Plutella xylostella | Spodoptera litura

Cc1cc(C2=NOC(c3cc(Cl)cc(Cl)c3)(C(F)(F)F)C2)ccc1C(=O)NC(=O)C1CCCC1 (stereo not drawn) [Synthesis Example 68]
≥ 80%: [1] | Plutella xylostella | Spodoptera litura

Cc1cc(C2=NOC(c3cc(Cl)cc(C(F)(F)F)c3)(C(F)(F)F)C2)ccc1C(=O)NC(=O)C1CCCC1 (stereo not drawn) [Synthesis Example 69]
≥ 80%: [1] | Plutella xylostella | Spodoptera litura

CC(C)=CC(=O)NC(=O)c1ccc(C2=NOC(c3cc(Cl)cc(C(F)(F)F)c3)(C(F)(F)F)C2)cc1C (stereo not drawn) [Synthesis Example 70]
≥ 80%: [1] | Plutella xylostella | Spodoptera litura

C/C=C/C(=O)NC(=O)c1ccc(C2=NOC(c3cc(Cl)cc(C(F)(F)F)c3)(C(F)(F)F)C2)cc1C (stereo not drawn) [Synthesis Example 71]
≥ 80%: [1] | Plutella xylostella | Spodoptera litura

C/C=C/C=C/C(=O)NC(=O)c1ccc(C2=NOC(c3cc(Cl)cc(C(F)(F)F)c3)(C(F)(F)F)C2)cc1C (stereo not drawn) [Synthesis Example 72]
≥ 80%: [1] | Plutella xylostella | Spodoptera litura

Cc1cc(C2=NOC(c3cc(Cl)cc(C(F)(F)F)c3)(C(F)(F)F)C2)ccc1C(=O)NC(=O)CC1CC1 (stereo not drawn) [Synthesis Example 75]
≥ 80%: [1] | Plutella xylostella | Spodoptera litura

Cc1cc(C2=NOC(c3cc(Cl)cc(C(F)(F)F)c3)(C(F)(F)F)C2)ccc1C(=O)NC(=O)c1ccc(C#N)cc1 (stereo not drawn) [Synthesis Example 76]
≥ 80%: [1] | Plutella xylostella | Spodoptera litura

Cc1cc(C2=NOC(c3cc(Cl)cc(C(F)(F)F)c3)(C(F)(F)F)C2)ccc1C(=O)NC(=O)c1nccs1 (stereo not drawn) [Synthesis Example 78]
≥ 80%: [1] | Plutella xylostella | Spodoptera litura

Cc1cc(C2=NOC(c3cc(Cl)cc(Cl)c3)(C(F)(F)F)C2)ccc1C(=O)NC(=O)c1nccs1 (stereo not drawn) [Synthesis Example 79]
≥ 80%: [1] | Plutella xylostella | Spodoptera litura

Cc1cc(C(=O)NC(=O)c2ccc(C3=NOC(c4cc(Cl)cc(Cl)c4)(C(F)(F)F)C3)cc2C)no1 (stereo not drawn) [Synthesis Example 80]
≥ 80%: [1] | Plutella xylostella | Spodoptera litura

Cc1cc(C2=NOC(c3cc(Cl)cc(Cl)c3)(C(F)(F)F)C2)ccc1C(=O)NC(=O)c1ccno1 (stereo not drawn) [Synthesis Example 81]
≥ 80%: [1] | Plutella xylostella | Spodoptera litura

Cc1cc(C(=O)NC(=O)c2ccc(C3=NOC(c4cc(Cl)cc(C(F)(F)F)c4)(C(F)(F)F)C3)cc2C)no1 (stereo not drawn) [Synthesis Example 82]
≥ 80%: [1] | Plutella xylostella | Spodoptera litura
